The numbers were not newly measured in article PMC11675001, “Monovalent and Divalent Designs of Copper Radiotheranostics Targeting Fibroblast Activation Protein in Cancer” (Cancers, 2024), which cites them from elsewhere.

Where only a bound is given, the exact number is not on record here.

The conditions of data set [1]: after 3 h; ref European Journal of Nuclear Medicine and Molecular Imaging (2022): 1-11 [3]; Pharmaceuticals 16, no. 8 (2023): 1138 [4].
For data set [2] the following is noted: ref European Journal of Nuclear Medicine and Molecular Imaging (2022): 1-11 [3]; Pharmaceuticals 16, no. 8 (2023): 1138 [4].

Regarding `CN(CCCN1CCN(C(=O)CN2CCN(CC(=O)[O-])CCN(CC(=O)[O-])CCN(CC(=O)[O-])CC2)CC1)c1ccc2nccc(C(=O)NCC(=O)N3CC(F)(F)C[C@H]3C#N)c2c1.[68Ga+3]` [[68Ga]Ga-FAPI-46], the Stability in data set [1] was above 95.3%. For the same compound, the “Partition coefficient (LogP)” value in data set [2] is −3.57.
